Experimental data as given in ChEMBL document CHEMBL4402577, “Discovery and Optimization of a Compound Series Active against Trypanosoma cruzi, the Causative Agent of Chagas Disease” (J Med Chem, 2020).
In brackets after ≈: the same amount, converted by molar mass. Activity calls are given as the source filed them. The rule behind the calls is not given here.

Legend:
Trypanosoma cruzi [1] = assay: Antitrypanosomal activity against Trypanosoma cruzi Tulahuen strain C2C4 trypomastigotes infected in rat L6 cells incubated for 96 hrs by photometric method based assay; type: functional, organism-based; conditions: Tulahuen strain C2C4, L6, 96 h
L6 = assay: Cytotoxicity against rat L6 cells incubated for 70 hrs by resazurin dye based assay; type: cell-based; conditions: L6, 70 h
[2] = Selectivity ratio, EC50 for cytotoxicity against rat L6 cells to EC50 for antitrypanosomal activity against Trypanosoma cruzi Tulahuen strain C2C4 trypomastigotes infected in rat L6 cells; type: toxicity, cell-based; conditions: read-out: Ratio EC50
[3] = Intrinsic clearance in CD1 mouse liver microsomes at 0.5 uM measured up to 30 mins in presence of NADPH by UPLC-MSMS analysis; type: ADME, Microsome; conditions: 0.5 h
[4] = Fraction unbound in NMRI mouse plasma at 30 mg/kg, iv by UPLC-MS/MS analysis; type: ADME, organism-based
[5] = Toxicity in ip dosed BALB/c mouse model of acute chagas disease assessed as maximum tolerated dose; type: organism-based; conditions: in vivo
Trypanosoma cruzi [6] = assay: Antitrypanosomal activity against Trypanosoma cruzi Brazil strain trypomastigotes coexpressing luciferase infected in BALB/c mouse model of acute chagas disease assessed as reduction in parasite level at 30 mg/kg, ip treated 3 days post infection and measured on day 5 and 10; type: functional, organism-based
Trypanosoma cruzi [7] = assay: Antitrypanosomal activity against Trypanosoma cruzi Brazil strain trypomastigotes coexpressing luciferase infected in BALB/c mouse model of acute chagas disease assessed as reduction in parasite level at 30 mg/kg, po treated 3 days post infection and measured on day 5 and 10; type: functional, organism-based
[8] = Kinetic aqueous solubility of compound in DMSO by nephelometric analysis; type: physicochemical; conditions: read-out: Kinetic_solubility

Row | EC50 (Trypanosoma cruzi [1]) [µM] | intrinsic clearance [3] [mL/min/g] | EC90 (Trypanosoma cruzi [1]) [µg/mL] | solubility kinetic [8] [µM] | SMILES | EC50 (L6) [µM] | selectivity ratio [2] | fraction unbound [4] | MTD [5] [mg/kg] | Activity (Trypanosoma cruzi [6]) | Activity (Trypanosoma cruzi [7])
1 | 0.026 | 3.2 | 0.038 (≈ 0.111 µM) | 73 (≈ 25.1 µg/mL) | CC(=O)Nc1ccc2[nH]c(=O)n([C@H]3CC[C@H](C(C)C)CC3)c(=O)c2c1 | 3.8 | 150 | 0.028 |  | Active | Active
2 | 0.38 | 10 |  | 15 (≈ 5.17 µg/mL) | CC(=O)Nc1cnc2[nH]c(=O)n([C@H]3CC[C@@H](C(C)C)CC3)c(=O)c2c1 | 16 | 42 |  |  |  | 
3 | 0.84 | 1.4 |  | 310 (≈ 111 µg/mL) | CC(=O)Nc1cnc2[nH]c(=O)n([C@H]3CC[C@H](C(C)(C)C)CC3)c(=O)c2c1 | 67 | 80 |  |  |  | 
4 | 4.3 | 2.7 |  | 180 (≈ 66.5 µg/mL) | CC(=O)Nc1ccc2[nH]c(=O)n([C@H]3CC[C@@H](C(F)(F)F)CC3)c(=O)c2c1 | 18 | 4.2 |  |  |  | 
5 | 0.34 | 0.9 |  | 55 (≈ 15.9 µg/mL) | CC[C@H]1CC[C@H](n2c(=O)[nH]c3ncc(N)cc3c2=O)CC1 | 51 | 150 |  |  |  | 
6 | 0.33 | 5.2 | 1.2 (≈ 4.18 µM) | > 350 | CC[C@H]1CC[C@@H](n2c(=O)[nH]c3ccc(N)cc3c2=O)CC1 | 52 | 160 |  |  |  | 
7 | 6.4 | 7.2 |  | > 270 | CC(=O)Nc1ccc2[nH]c(=O)n([C@H]3CO[C@@H](C(C)(C)C)OC3)c(=O)c2c1 | 183 | 29 |  |  |  | 

More lines, now with the values behind:

Row | SMILES | EC50 (Trypanosoma cruzi [1]) [µM] | intrinsic clearance [3] [mL/min/g] | EC90 (Trypanosoma cruzi [1]) [µg/mL] | solubility kinetic [8] [µM] | EC50 (L6) [µM] | selectivity ratio [2] | fraction unbound [4] | MTD [5] [mg/kg] | Activity (Trypanosoma cruzi [6]) | Activity (Trypanosoma cruzi [7])
8 | CC(C)(C)[C@H]1CC[C@H](n2c(=O)[nH]c3ccc(N)cc3c2=O)CC1 | 0.063 | 2 |  |  | 21 | 330 | 0.011 | 30 | inactive | inactive
9 | CC(C)[C@H]1CC[C@@H](n2c(=O)[nH]c3ncc(N)cc3c2=O)CC1 | 0.57 | 4.8 |  | 17 (≈ 5.14 µg/mL) | 46 | 81 |  |  |  | 
10 | CCC[C@H]1CC[C@H](n2c(=O)[nH]c3ccc(NC(C)=O)cc3c2=O)CC1 | 0.015 | 1.5 |  | 47 (≈ 16.1 µg/mL) | 11 | 730 |  |  |  | 
11 | CC[C@H]1CC[C@H](n2c(=O)[nH]c3ccc(NC(C)=O)cc3c2=O)CC1 | 0.058 | 2.4 |  | 115 (≈ 37.9 µg/mL) | 14 | 240 |  |  |  | 
12 | CC(=O)Nc1cnc2[nH]c(=O)n([C@H]3CC[C@@H](C(C)(C)C)CC3)c(=O)c2c1 | 0.1 | 15 |  | < 28 | 15 | 150 |  |  |  | 
13 | CC(=O)Nc1ccc2[nH]c(=O)n([C@H]3CC[C@@H](C(C)(C)C)CC3)c(=O)c2c1 | 0.017 | < 0.5 |  | 95 (≈ 34 µg/mL) | 5 | 290 |  |  |  | 
